Reference: patent US11827917B1, “Methods for the conversion of fermentable sugars to ethanol” (Colorado State University Research Foundation, priority 2020, dated 2023)
Marks after values point to notes of the source that are not given here.

How the values were obtained:
S. cerevisiae ATCC 26603 = experiment: Serum-bottle cultivation in YPD, different yeast strains; type: cell-based, Saccharomyces cerevisiae; details: 0.2%
S. cerevisiae JAY 241 = experiment: as above; type: cell-based, Saccharomyces cerevisiae; details: 0.2%
S. cerevisiae JAY 240 = experiment: as above; type: cell-based, Saccharomyces cerevisiae; details: 0.2%
S. paradoxus JAY 1502 = experiment: as above; type: cell-based; details: 0.2%
Procedure: (§1) Analytical methods: Cell growth was evaluated by monitoring OD600 and cell dry mass concentration. For dry mass measurements, 1.0 mL of culture was transferred to a pre-dried and pre-weighed 2-mL centrifuge tube. The tubes were centrifuged for 10 min at 14000 rpm using a microcentrifuge, and then the cell pellets were dried in an oven for 3 days at 65° C. The cell dry mass was determined by subtracting the initial tube mass from the dried mass of tube with cells. The concentrations of glucose, ethanol, and glycerol were measured via HPLC (Shimadzu LC20A series) outfitted with a refractive index detector and using an Aminex HPX-87H (300×7.8 mm) organic acid column and Cation H+ guard cartridge (Bio Rad Laboratories, Hercules, CA). The column was maintained at 65° C. and the mobile phase was 5 mM sulfuric acid with a flow rate of 0.6 mL/min. Standard compound solutions were used to calibrate the HPLC. Each sample was analyzed three times by HPLC.
(§2) Procedure: Seven yeast strains (S. cerevisiae ATCC 26603, S. cerevisiae JAY 238, S. cerevisiae JAY 240, S. cerevisiae JAY 241, S. paradoxus JAY 1502, S. kudriavzezii JAY 1503, and S. mikatae JAY 1504) were pre-cultured in 30 mL of YPD medium in 100 mL serum bottle overnight in a shaker at 30° C. and 200 rpm. The precultured yeast cells of each strains were collected and washed twice. Finally, the cell pellet was resuspended in about 10 mL 0.8% (w/v) NaCl and the OD600 measured. TyrOH, PheOH, and TrpOH were added to 30 mL of YPD medium in 100-mL serum bottles at 0.2% (w/v) respectively. The same amount of DMSO was added in YPD medium and served as control to the TrpOH and TyrOH treatments. The prepared yeast cells were added to obtain the initial cell concentration at OD600=0.2. The serum bottles were sealed and cultured in a shaker at 30° C. and 200 rpm for 24 h. There were three biological replicates for each treatment.

S. kudriavzezii JAY 1503 = experiment: as above; type: cell-based; details: 0.2%
Procedure: as §1, §2

S. mikatae JAY 1504 = experiment: as above; type: cell-based; details: 0.2%
Procedure: as §1, §2

yeast = experiment: Yeast growth and ethanol yield in serum bottles, low/high cell inoculum (Tables 5, 6); type: cell-based; details: for EtOH yield / EtOH yield % Δ from control: 48 h test
[1] = S. cerevisiae ATCC 26603, YPD (Table 9B)
[2] = S. cerevisiae JAY 241, YPD (Table 9B)
[3] = S. cerevisiae JAY 240, YPD (Table 9B)
[4] = S. paradoxus JAY 1502, YPD (Table 9B)
[5] = 0.05%, high cell inoculum (OD600 at 0 h 0.85)
[6] = 0.05%, low cell inoculum (OD600 at 0 h 0.30)
[7] = 0.1%, high cell inoculum (OD600 at 0 h 0.85)
[8] = 0.1%, low cell inoculum (OD600 at 0 h 0.30)
[9] = 0.2%, high cell inoculum (OD600 at 0 h 0.85)
[10] = 0.2%, low cell inoculum (OD600 at 0 h 0.30)

For `OCCc1c[nH]c2ccccc12` [TrpOH, tryptophol], the “Biomass Yield” value (S. cerevisiae ATCC 26603; S. cerevisiae ATCC 26603) was 0.059 ± 0.001 g/g, the “Biomass yield % change vs. control” value (S. cerevisiae ATCC 26603; S. cerevisiae ATCC 26603) was −17* % and the “EtOH yield” value (S. cerevisiae ATCC 26603; S. cerevisiae ATCC 26603) was 0.495 ± 0.008 g/g. For the same compound, the “Glycerol yield” value (S. cerevisiae ATCC 26603; S. cerevisiae ATCC 26603) was 0.054 ± 0.005 g/g, the “Glycerol yield % change vs. control” value (S. cerevisiae ATCC 26603; S. cerevisiae ATCC 26603) was −25* % and the DCW (S. cerevisiae ATCC 26603; S. cerevisiae ATCC 26603, YPD) was 1.13 mg. The “DCW Δ vs. ref” value (S. cerevisiae ATCC 26603; S. cerevisiae ATCC 26603, YPD) was 64.2%, the OD600 (S. cerevisiae ATCC 26603; S. cerevisiae ATCC 26603, YPD) was 0.77 and the “OD600 Δ vs. ref” value (S. cerevisiae ATCC 26603; S. cerevisiae ATCC 26603, YPD) was 54.8%. For the same compound, the “Biomass Yield” value (S. cerevisiae ATCC 26603; [1]) was 0.059 + 0.001 g/g, the “Biomass yield Δ vs. ref” value (S. cerevisiae ATCC 26603; [1]) was −16.7% and the Ethanol yield (S. cerevisiae ATCC 26603; [1]) was 0.495 ± 0.008 g/g. For the same compound, the “Ethanol yield Δ vs. ref” value (S. cerevisiae ATCC 26603; [1]) was 14.2%, the Glycerol yield (S. cerevisiae ATCC 26603; [1]) was 0.054 ± 0.005 g/g and the “Glycerol yield Δ vs. ref” value (S. cerevisiae ATCC 26603; [1]) was −24.74%. The “Biomass Yield” value (S. cerevisiae JAY 241; S. cerevisiae JAY 241) was 0.063 ± 0.004 g/g, the “Biomass yield % change vs. control” value (S. cerevisiae JAY 241; S. cerevisiae JAY 241) was “+8.6%” and the “EtOH yield” value (S. cerevisiae JAY 241; S. cerevisiae JAY 241) was 0.435 ± 0.035 g/g. The “Glycerol yield” value (S. cerevisiae JAY 241; S. cerevisiae JAY 241) was 0.041 ± 0.004 g/g, the “Glycerol yield % change vs. control” value (S. cerevisiae JAY 241; S. cerevisiae JAY 241) was −26* % and the “DCW Δ vs. ref” value (S. cerevisiae JAY 241; S. cerevisiae JAY 241, YPD) was 58.5%. For the same compound, the OD600 (S. cerevisiae JAY 241; S. cerevisiae JAY 241, YPD) was 1.00, the “OD600 Δ vs. ref” value (S. cerevisiae JAY 241; S. cerevisiae JAY 241, YPD) was 50.1% and the “Biomass Yield” value (S. cerevisiae JAY 241; [2]) was 0.063 + 0.004 g/g. For the same compound, the “Biomass yield Δ vs. ref” value (S. cerevisiae JAY 241; [2]) was 8.6%, the Ethanol yield (S. cerevisiae JAY 241; [2]) was 0.435 ± 0.035 g/g and the “Ethanol yield Δ vs. ref” value (S. cerevisiae JAY 241; [2]) was 13.8%. For the same compound, the Glycerol yield (S. cerevisiae JAY 241; [2]) was 0.041 ± 0.004 g/g, the “Glycerol yield Δ vs. ref” value (S. cerevisiae JAY 241; [2]) was −25.72% and the “Biomass Yield” value (S. cerevisiae JAY 240; S. cerevisiae JAY 240) was 0.055 ± 0.006 g/g. For the same compound, the “Biomass yield % change vs. control” value (S. cerevisiae JAY 240; S. cerevisiae JAY 240) was −24* %, the “EtOH yield” value (S. cerevisiae JAY 240; S. cerevisiae JAY 240) was 0.464 ± 0.053 g/g and the “Glycerol yield” value (S. cerevisiae JAY 240; S. cerevisiae JAY 240) was 0.035 ± 0.000 g/g. The “Glycerol yield % change vs. control” value (S. cerevisiae JAY 240; S. cerevisiae JAY 240) was −12* %, the DCW (S. cerevisiae JAY 240; S. cerevisiae JAY 240, YPD) was 1.55 mg and the “DCW Δ vs. ref” value (S. cerevisiae JAY 240; S. cerevisiae JAY 240, YPD) was 50.8%. The OD600 (S. cerevisiae JAY 240; S. cerevisiae JAY 240, YPD) was 1.12, the “OD600 Δ vs. ref” value (S. cerevisiae JAY 240; S. cerevisiae JAY 240, YPD) was 45.0% and the “Biomass Yield” value (S. cerevisiae JAY 240; [3]) was 0.055 + 0.006 g/g. For the same compound, the “Biomass yield Δ vs. ref” value (S. cerevisiae JAY 240; [3]) was −23.5%, the Ethanol yield (S. cerevisiae JAY 240; [3]) was 0.464 ± 0.053 g/g and the “Ethanol yield Δ vs. ref” value (S. cerevisiae JAY 240; [3]) was 14.5%. The Glycerol yield (S. cerevisiae JAY 240; [3]) was 0.035 ± 0.000 g/g, the “Glycerol yield Δ vs. ref” value (S. cerevisiae JAY 240; [3]) was −11.63% and the “Biomass Yield” value (S. paradoxus JAY 1502; S. paradoxus JAY 1502) was 0.038 ± 0.001 g/g. For the same compound, the “Biomass yield % change vs. control” value (S. paradoxus JAY 1502; S. paradoxus JAY 1502) was −42* %, the “EtOH yield” value (S. paradoxus JAY 1502; S. paradoxus JAY 1502) was 0.417 ± 0.056 g/g and the “EtOH yield % change vs. control” value (S. paradoxus JAY 1502; S. paradoxus JAY 1502) was “+7.2* %”. For the same compound, the “Glycerol yield increase from control” value (S. paradoxus JAY 1502; S. paradoxus JAY 1502) was 71%, the DCW (S. paradoxus JAY 1502; S. paradoxus JAY 1502, YPD) was 1.40 mg and the “DCW Δ vs. ref” value (S. paradoxus JAY 1502; S. paradoxus JAY 1502, YPD) was 52.8%. The OD600 (S. paradoxus JAY 1502; S. paradoxus JAY 1502, YPD) was 0.40, the “OD600 Δ vs. ref” value (S. paradoxus JAY 1502; S. paradoxus JAY 1502, YPD) was 18.0% and the “Biomass Yield” value (S. paradoxus JAY 1502; [4]) was 0.038 + 0.001 g/g. The “Biomass yield Δ vs. ref” value (S. paradoxus JAY 1502; [4]) was −42.0%, the Ethanol yield (S. paradoxus JAY 1502; [4]) was 0.417 ± 0.056 g/g and the “Ethanol yield Δ vs. ref” value (S. paradoxus JAY 1502; [4]) was 7.2%. For the same compound, the “Cell growth” value (S. kudriavzezii JAY 1503; S. kudriavzezii JAY 1503) was “very low cell growth”, the DCW (S. kudriavzezii JAY 1503; S. kudriavzezii JAY 1503, YPD) was 0.48 mg and the “DCW Δ vs. ref” value (S. kudriavzezii JAY 1503; S. kudriavzezii JAY 1503, YPD) was 18.6%. For the same compound, the OD600 (S. kudriavzezii JAY 1503; S. kudriavzezii JAY 1503, YPD) was 0.16, the “OD600 Δ vs. ref” value (S. kudriavzezii JAY 1503; S. kudriavzezii JAY 1503, YPD) was 9.9% and the “Cell growth” value (S. mikatae JAY 1504; S. mikatae JAY 1504) was “very low cell growth”. The DCW (S. mikatae JAY 1504; S. mikatae JAY 1504, YPD) was 1.45 mg, the “DCW Δ vs. ref” value (S. mikatae JAY 1504; S. mikatae JAY 1504, YPD) was 43.3% and the OD600 (S. mikatae JAY 1504; S. mikatae JAY 1504, YPD) was 0.64. The “OD600 Δ vs. ref” value (S. mikatae JAY 1504; S. mikatae JAY 1504, YPD) was 28.1%, the “OD600 at 48 h” value (yeast; [5]) was 2.47 and the EtOH yield (yeast; [5]) was 0.52 g/g. The “EtOH yield % Δ from control” value (yeast; [5]) was 4.6%, the “OD600 at 48 h” value (yeast; [6]) was 1.17 and the EtOH yield (yeast; [6]) was 0.50 g/g. For the same compound, the “EtOH yield % Δ from control” value (yeast; [6]) was 5.7%, the “OD600 at 48 h” value (yeast; [7]) was 1.87 and the EtOH yield (yeast; [7]) was 0.54 g/g. The “EtOH yield % Δ from control” value (yeast; [7]) was 7.6%, the “OD600 at 48 h” value (yeast; [8]) was 0.79 and the EtOH yield (yeast; [8]) was 0.50 g/g. The “EtOH yield % Δ from control” value (yeast; [8]) was 2.2%, the “OD600 at 48 h” value (yeast; [9]) was 1.40 and the EtOH yield (yeast; [9]) was 0.51 g/g. For the same compound, the “EtOH yield % Δ from control” value (yeast; [9]) was 1.9%, the “OD600 at 48 h” value (yeast; [10]) was 0.51 and the EtOH yield (yeast; [10]) was 0.52 g/g. For the same compound, the “EtOH yield % Δ from control” value (yeast; [10]) was 5.9%.
